Test results published in patent US20250145585A1, “HETEROCYCLIC INHIBITORS OF IGF-1R FOR TREATMENT OF DISEASE” (HORIZON THERAPEUTICS IRELAND DAC, priority 2023, published 2025).

Key:
IGF-1R [1] = target: T1, IGF-1R (Homo sapiens, UniProt P08069); assay: Example B-2: IGF-1R Assay (PathHunter cell lines, EC80 agonist challenge, chemiluminescent detection); type: cell-based; conditions: PathHunter cells, compound 60 minutes at 37° C., EC80 agonist 3 hours; read-out: IC50, Biological Activity against IGF-1R (Table B2)
T1 construct: expressed in transfected cells
In short: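 Read-out is PathHunter chemiluminescence, developed for 1 h at room temperature after a 3 h room-temperature EC80 agonist challenge that followed 60 min compound pre-treatment at 37° C (1% vehicle). IC50 comes from % inhibition normalized to EC80 and vehicle controls.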

IGF-1R [2] = target: T1, IGF-1R; assay: Example B-1: IGF-1R Assay (PC3 cells stimulated with IGF1, AlphaLISA on cell lysates); type: cell-based; conditions: compound two hours, IGF1 200 ng/mL for 30 min, read-out: IC50, Biological Activity against IGF-1R (Table B1)
In short: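 IC50 from AlphaLISA read-out of lysed PC3 cells, percent inhibition normalized between vehicle and EC80 controls. Before lysis, cells had 2 h serum-free starvation, 2 h exposure to compound in 3× dilution series, and 30 min IGF1 stimulation at final 200 ng/mL.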

T1 sequence (P08069 31-1367): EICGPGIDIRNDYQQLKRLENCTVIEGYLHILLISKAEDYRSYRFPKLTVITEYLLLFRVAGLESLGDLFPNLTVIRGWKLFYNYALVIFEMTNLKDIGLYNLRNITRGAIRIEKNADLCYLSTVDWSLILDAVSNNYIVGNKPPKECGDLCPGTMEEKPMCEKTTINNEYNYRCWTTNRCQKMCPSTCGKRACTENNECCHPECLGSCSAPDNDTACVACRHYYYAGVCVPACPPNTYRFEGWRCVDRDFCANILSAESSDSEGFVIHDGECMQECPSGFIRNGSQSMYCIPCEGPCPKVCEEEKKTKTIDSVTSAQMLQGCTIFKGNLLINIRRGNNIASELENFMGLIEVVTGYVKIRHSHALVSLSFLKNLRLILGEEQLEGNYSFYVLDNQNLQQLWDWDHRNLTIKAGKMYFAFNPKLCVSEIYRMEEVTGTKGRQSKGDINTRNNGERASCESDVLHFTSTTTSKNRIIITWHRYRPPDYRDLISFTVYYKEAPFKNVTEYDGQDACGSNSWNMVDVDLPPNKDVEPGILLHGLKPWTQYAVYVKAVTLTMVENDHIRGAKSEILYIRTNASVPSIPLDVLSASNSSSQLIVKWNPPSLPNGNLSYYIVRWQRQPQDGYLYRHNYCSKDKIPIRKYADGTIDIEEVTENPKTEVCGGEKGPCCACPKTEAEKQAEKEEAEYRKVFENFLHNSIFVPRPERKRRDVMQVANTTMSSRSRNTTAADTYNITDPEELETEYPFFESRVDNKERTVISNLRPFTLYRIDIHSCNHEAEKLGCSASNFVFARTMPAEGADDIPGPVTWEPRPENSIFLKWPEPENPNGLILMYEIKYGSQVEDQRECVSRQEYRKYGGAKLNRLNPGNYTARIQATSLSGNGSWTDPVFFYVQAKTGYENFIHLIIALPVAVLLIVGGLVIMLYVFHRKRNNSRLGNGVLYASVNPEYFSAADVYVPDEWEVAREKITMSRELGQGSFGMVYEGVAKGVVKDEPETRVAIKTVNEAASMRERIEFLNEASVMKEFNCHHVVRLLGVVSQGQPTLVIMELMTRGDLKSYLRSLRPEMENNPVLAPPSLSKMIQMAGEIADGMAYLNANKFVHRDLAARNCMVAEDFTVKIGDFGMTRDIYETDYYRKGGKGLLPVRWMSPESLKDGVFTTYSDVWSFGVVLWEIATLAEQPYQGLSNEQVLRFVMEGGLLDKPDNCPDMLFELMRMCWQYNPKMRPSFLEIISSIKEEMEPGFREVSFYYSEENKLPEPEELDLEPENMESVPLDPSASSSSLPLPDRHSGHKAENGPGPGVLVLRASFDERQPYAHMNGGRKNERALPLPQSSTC

SMILES | IC50 (IGF-1R [1]) [nM] | IC50 (IGF-1R [2]) [nM]
CC(C)Nc1cc(CN2C(=O)N(c3ccc4c(c3)N(C)C(=O)C4(C)C)C(=O)C2(C)C)ccn1 [Compound 111, 1-((2-(isopropylamino)pyridin-4-yl)methyl)-5,5-dimethyl-3-(1,3,3-trimethyl-2-oxoindolin-6-yl)imidazolidine-2,4-dione] | 2000 to 10000 | 2000 to 10000
CC(C)Nc1cc(CN2C(=O)N(c3ccc4c(c3)S(=O)(=O)CC4(C)C)C(=O)C2(C)C)ccn1 [Compound 190, 3-(3,3-dimethyl-1,1-dioxido-2,3-dihydrobenzo[b]thiophen-6-yl)-1-((2-(isopropylamino)pyridin-4-yl)methyl)-5,5-dimethylimidazolidine-2,4-dione] | 2000 to 10000 | 2000 to 10000
CC1(C)C(=O)N(c2ccc(SC(F)(F)F)cc2)C(=O)N1Cc1ccnc2c1CC(=O)N2 [Compound 12, 5,5-dimethyl-1-((2-oxo-2,3-dihydro-1H-pyrrolo[2,3-b]pyridin-4-yl)methyl)-3-(4-((trifluoromethyl)thio)phenyl)imidazolidine-2,4-dione] | ≤ 500 | ≤ 500
CC1(C)C(=O)N(c2ccc(SC(F)(F)F)cc2)C(=O)N1Cc1ccnc(N)c1Br [Compound 388, 1-((2-amino-3-bromopyridin-4-yl)methyl)-5,5-dimethyl-3-(4-((trifluoromethyl)thio)phenyl)imidazolidine-2,4-dione] | ≤ 500 | ≤ 500
CC1CC(Nc2cc(CN3C(=O)N(c4ccc(C5(C(F)(F)F)CC5)cc4)C(=O)C3(C)C)ccn2)CCO1 (centres unmarked) [Compound 127, 5,5-dimethyl-1-((2-((2-methyltetrahydro-2H-pyran-4-yl)amino)pyridin-4-yl)methyl)-3-(4-(1-(trifluoromethyl)cyclopropyl)phenyl) imidazolidine-2,4-dione] | ≤ 500 | ≤ 500
CC(C)Nc1cc(CN2C(=O)N(c3ccc(C4(C#N)CCCC4)cc3)C(=O)C2(C)C)ccn1 [Compound 131, 1-(4-(3-((2-(isopropylamino)pyridin-4-yl)methyl)-4,4-dimethyl-2,5-dioxoimidazolidin-1-yl)phenyl)cyclopentane-1-carbonitrile] | ≤ 500 | ≤ 500

Next, values leading:

IC50 (IGF-1R [1]) [nM] | IC50 (IGF-1R [2]) [nM] | SMILES
≤ 500 | ≤ 500 | COc1c(CN2C(=O)N(c3ccc(S(=O)(=O)C(F)(F)F)cc3)C(=O)C2(C)C)ccnc1N [Compound 394, 1-((2-amino-3-methoxypyridin-4-yl)methyl)-5,5-dimethyl-3-(4-((trifluoromethyl)sulfonyl)phenyl) imidazolidine-2,4-dione]
≤ 500 | ≤ 500 | CC1(C)C(=O)N(c2ccc(SC(F)(F)F)cc2)C(=O)N1Cc1ccnc2[nH]ccc12 [Compound 1, 1-((1H-pyrrolo[2,3-b]pyridin-4-yl)methyl)-5,5-dimethyl-3-(4-((trifluoromethyl)thio)phenyl)imidazolidine-2,4-dione]
≤ 500 | ≤ 500 | CC1(C)C(=O)N(c2ccc(S(=O)(=O)C(F)(F)F)cc2)C(=O)N1Cc1ccnc2c1CC(=O)N2 [Compound 23, 5,5-dimethyl-1-((2-oxo-2,3-dihydro-1H-pyrrolo[2,3-b]pyridin-4-yl)methyl)-3-(4-((trifluoromethyl)sulfonyl)phenyl)imidazolidine-2,4-dione]
≤ 500 | ≤ 500 | CC1(C)C(=O)N(c2ccc(C3(C(F)(F)F)CC3)cc2)C(=O)N1Cc1ccnc(N[C@H]2CCCOC2)c1 [Compound 121, (S)-5,5-dimethyl-1-((2-((tetrahydro-2H-pyran-3-yl)amino)pyridin-4-yl)methyl)-3-(4-(1-(trifluoromethyl)cyclopropyl)phenyl) imidazolidine-2,4-dione]
